Key:
[1] = test system: Mouse neuro 2a cells; assay: Neurite outgrowth of mouse neuroblastoma neuro 2a cells (Table 7); type: cell-based; conditions: mean ± S.D.
Procedure: The biological activities in vitro of the compounds of formula (I) on cells of the nervous system were tested. The cells tested were mouse neuroblastoma cell line neuro-2a (Dainippon Pharmaceutical Co., Ltd.) which have been established as the cells of the nervous system. The above nerve cells were grown in an incubator at 37° C. in the presence of 5% carbon dioxide gas exponentially, and the cultured for a certain period of time together with the compounds of formula (I).
The effects of the compounds of this invention on neuroblastoma cells were examined by the following method.
Mouse neuro 2a cells in the logarithmic growth period in the Dulbecco's modified Eagle's medium [DMEM, containing 100 units/ml of penicillin G sodium and 100 micrograms/ml of streptomycin sulfate] containing 10% of FCS were seeded in a 48-well plate so that the number of cells was 1,000 cells/well, and cultured for one day in 0.25 ml of the culture fluid in each well in an incubator containing 5% of carbon dioxide gas in air at 37° C. The medium was replaced by a medium containing each antibiotics and FCS and the cells were further cultured for 24 hours. Then, a 4% aqueous glutaraldehyde solution in the same amount as a medium (0.25 ml) was added, and the culture was left to stand at room temperature for 2 hours to fix the cells. After washing with water, a 0.05% aqueous solution of methylene blue was added to stain the cells. Under a microscope, the number of cells containing outgrown neurites (cells having at least one neurite with a length of at least two times as large as the long diameter of the cell) was counted visually, and the proportion of these cells in the entire cells was calculated. The well was observed over 5 or more visual fields (at least 2% of the entire surface area of the well) continuous to the left and right from a mark put at the center of the well, and more than 200 cells was counted. One drug compound was used in 6 different concentrations at most, and three runs were conducted for each concentration.

[2] = test system: Mouse neuroblastoma cells NS-20Y; assay: Neurite appearance in mouse neuroblastoma NS-20Y cells (Table 8); type: cell-based;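 also: cells grown in polyornithine-coated dishes, with timing counted from the start of culture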
[3] = test system: mouse; assay: Acute toxicity in mouse (Table 10); type: in vivo
Procedure: The acute toxicity of the compounds of the invention was examined by the following method.
Male ddy-strain 5-week old mice, 4-6 per group, were used as experimental animals. Each of the compounds was dissolved or suspended in saline and administered perorally (p.o.) or intraperitoneally (i.p.), and the toxicity of the compound was assessed 24 hours after the administration.

[4] = i.p., 24 hours after administration

| SMILES | Ratio of the number of cells having neurites with a length of at least two times as large as the diameter of cells to the total number of cells ([1]; 0.03 mM) [%] | Ratio of the number of cells having neurites with a length of at least two times as large as the diameter of cells to the total number of cells ([1]; 0.1 mM) [%] | Ratio of the number of cells having neurites with a length of at least two times as large as the diameter of cells to the total number of cells ([1]; 0.3 mM) [%] | Ratio of the number of cells having neurites with a length of at least two times as large as the diameter of cells to the total number of cells ([1]; 1 mM) [%] | The number of cells in which neurites appeared/Total number of cells ([2]; 24 hour, 0.1 mM) | The number of cells in which neurites appeared/Total number of cells ([2]; 24 hour, 0.2 mM) | The number of cells in which neurites appeared/Total number of cells ([2]; 24 hour, 0.5 mM) | The number of cells in which neurites appeared/Total number of cells ([2]; 48 hour, 0.1 mM) | The number of cells in which neurites appeared/Total number of cells ([2]; 48 hour, 0.2 mM) | The number of cells in which neurites appeared/Total number of cells ([2]; 48 hour, 0.5 mM) | Estimated LD50 ([3]; in vivo, ip) [mg/kg] | Ratio of the number of cells having neurites with a length of at least two times as large as the diameter of cells to the total number of cells ([1]; 0.01 mM) [%] | Estimated LD50 [3, 4] [mg/kg] |
| --- | --- | --- | --- | --- | --- | --- | --- | --- | --- | --- | --- | --- | --- |
| CC1CCN(c2nccc(N3CCCC3=O)n2)CC1 [Compound 304] | 3.7 ± 1.2 | 6.8 ± 1.0 | 17.7 ± 2.9 | 16.3 ± 4.5 | 8/50 | 12/50 | 16/50 | 7/50 | 14/50 | 17/50 | 250 to 500 | – | – |
| CCC1CCN(c2nccc(N3CCCC3=O)n2)CC1 [Compound 312] | 4.1 ± 1.2 | 12.7 ± 2.8 | – | – | 6/50 | 13/50 | 17/50 | 8/50 | 13/50 | 18/50 | – | 3.8 ± 0.6 | > 500 |
| O=C1CCCN1c1ccnc(N2CCCC2)n1 [Compound 320] | – | 4.2 ± 0.3 | 11.0 ± 0.8 | 10.7 ± 4.7 | 5/50 | – | 6/50 | – | – | 3/50 | – | 4.2 ± 1.9 | > 500 |
| CC1CCCCN1c1nccc(N2CCCC2=O)n1 (centres unmarked) [Compound 328] | – | – | 5.6 ± 1.7 | – | 3/50 | – | – | 3/50 | – | – | 250 to 500 | 3.9 ± 0.9 | – |
| CC1CCCN(c2nccc(N3CCCC3=O)n2)C1 (centres unmarked) [Compound 336] | 4.0 ± 1.0 | 5.7 ± 1.6 | 21.3 ± 3.0 | 21.2 ± 1.6 | 3/50 | – | – | 5/50 | – | – | 250 to 500 | – | – |
| CC1CC(C)CN(c2nccc(N3CCCC3=O)n2)C1 (centres unmarked) [Compound 344] | – | 7.5 ± 3.3 | 10.4 ± 3.4 | 12.5 ± 1.3 | 3/50 | – | – | 3/50 | – | – | 250 to 500 | 5.6 ± 1.6 | – |
| O=C1CCCN1c1ccnc(N2CCc3ccccc3C2)n1 [Compound 352] | – | – | 4.2 ± 0.6 | – | – | 5/50 | – | – | 3/50 | – | – | 3.4 ± 0.1 | > 500 |

Source: patent US5358945A, “Pyrimidine compound and pharmaceutically acceptable salts thereof” (Mitsui Petrochemical Industries, Ltd., priority 1990, dated 1994)
